# Literature values, collected in patent publication US7324926B2, “Methods for predicting chemosensitivity or chemoresistance” (Whitehead Institute for Biomedical Research, priority 1999, dated 2008).
# Assays:
# [1] = test system: ovarian cancer cell lines; details: ovarian cancer cell lines of the NCI-60 panel; resistant = log10(GI50) at least 0.8 SD above the mean
# [2] = test system: central nervous system (CNS) cell lines; details: CNS cell lines of the NCI-60 panel; sensitive = log10(GI50) at least 0.8 SD below the mean
smiles,measurement,setting,value
"C=C1[C@@H](C)[C@H]2[C@H](Cc3ccccc3)NC(=O)[C@]23[C@H](OC(C)=O)/C=C/[C@@](C)(O)C(=O)[C@@H](C)C/C=C/[C@H]3[C@@H]1O [cytochalasin D, Cytochalasin D]",cytochalasin D sensitivity class of cell lines (from GI50),[1],resistant
same,cytochalasin D sensitivity class of cell lines (from GI50),[2],sensitive
